Measured values reported in patent US20090317376A1, “Compositions And Methods For Lipo Modeling” (Georgetown University MEDICAL SCHOOL, priority 2005, published 2009).
Entries after “also recorded” stand apart in the source; their conditions may differ.

System: 3T3-L1 preadipocytes
Assay: Adipocyte differentiation / adipogenesis (Oil red-O staining, leptin and resistin ELISA)
Format: cell-based, murine
Description: 3T3-L1 preadipocytes are stimulated to differentiate to a rounded phenotype and accumulate lipids in the form of lipid droplets when treated with dexamethasone, isobutylmethylxanthine (IBMX), and insulin [54]. The 3T3-L1 cells are primed for differentiation by the incubation with IBMX and dexamethasone, and in some cells insulin, for 24 hrs, then, insulin is withdrawn and replaced with various concentrations of NPY (FIG. 5).
ELISA: NPY ELISA system are purchased from Penninsula Laboratories, bFGF, VEGF and mouse leptin ELISA kits from R&D systems, mouse adiponectin ELISA kit from Linco Research and catecholamine detection system—3CAT EIA from Diagnostic Systems Laboratories. The assays are performed according to the manufacturers' procedures.
Oil Red O staining: Oil Red O solution (0.36% Oil Red O solution in 60% isopropanol) is used to stain lipid droplets in mature adipocytes and paraffin embedded tissues (Chemicon Adipogenesis Assay kit).
1. Cell culture: 3T3-L1 preadipocyte cells, (gift from Dr. Lane,^34) were cultured in DMEM high glucose media with glutamine, 10% calf sera (Gemini Bioproducts), d-Biotin (8 μg/ml) and Pantothenate (8 μg/ml) (Sigma). SK-N-BE(2) neuroblastoma cells (ATCC) were cultured in EMEM/F12K with 10% fetal bovine sera (FBS). HMVEC endothelial cells (Cambrex) were cultured in endothelial cell growth media (Cambrex). All media was supplemented with 100 units/ml penicillin, 100 μg/ml streptomycin and […] amphotericin. 2. Proliferation assay: Cells were plated onto 96-well dishes, growth-arrested in serum-free media for 24 h, and then were treated with the desired factors for 24 h in the culture media supplemented with 0.25% FBS; 4 hr after treatment 0.5 μCi [^3H] thymidine was added to each well. After 24 h, cells were harvested in a 96-well harvester (Tomtec) and counted in a Betaplate Liquid Scintillation Counter (Wallac). 3. Co-culture: For mitogenic assay and expression studies, co-culture was performed in a Costar Transwell system. Cells were plated on 6-well plates or inserts with 0.4 μm Polyester membranes. At 30% confluence, the inserts were combined with wells containing other cells. Co-culture of neuroblastomas with endothelial cells (EC) were carried out in EC media and preadipocytes in preadipocyte growth media. After the respective treatment, the cells growing on the plates were harvested for RNA isolation. For the mitogenic assay, cells were first growth-arrested in serum-free media for 24 hr, then the inserts placed into the plates and cells treated with desired factors in 0.25% FBS. After 48 hr, the cells were counted with a Beckman Coulter Counter. In both co-culture models, media was collected for Leptin (R&D Systems), Resistin (R&D Systems), and NPY (Bachem) ELISA. 4. Real-time RT-PCR: RNA was isolated using Tri Reagent (Sigma) and cDNA synthesized by iScript cDNA synthesis kit (BioRad). ICycler iQ Detection System (BioRad) was used to perform Real Time PCR. cDNA was amplified for 40 cycles using TaqMan PCR Reagent Kit and pre-designed primers and fluorescein-labeled probes from Applied Biosystems, as previously described^16, according to the manufacturer's procedure. The results were analyzed using software provided by BioRad and expression levels calculated by the comparative CT method using β-actin as an endogenous reference gene, according to the Applied Biosystems' ABI PRISM 7700 User Bulletin #2. 5. TUNEL: TUNEL reaction was performed using In Situ Cell Detection Kit (Roche Diagnostic) and signal converted to visible light using AP-converter. The density of TUNEL positive cells will be measured using NIH ImageJ software (using a plugin written by Wayne Rasband). 6. ELISA: ELISA kits for: NPY (Bachem Laboratories), mouse Leptin, Corticosterone, and Resistin (R&D systems), rat/mouse Insulin and mouse Adiponectin (Linco Research), and mouse Osteocalcin (Biomedical Technologies, Inc.) were used. The assays were performed according to the manufacturers' procedures. 7. […]

neuropeptide Y [NPY] was tested, and the “adipogenesis in cells not originally primed by insulin” value (NPY by itself) was “unable to stimulate adipogenesis”, the leptin secretion (differentiated 3T3-L1 adipocytes) was “increases leptin secretion; also recorded: increased” and the “differentiation into adipocytes (adipogenesis)” value (insulin preconditioned / primed 3T3-L1 cells, NPY 1×10-14 to 1×10^-8 M) was “stimulated differentiation into adipocytes; also recorded: stimulating adipogenesis”. For the same compound, the resistin secretion (preadipocytes primed for differentiation) was “increased” and the “lipid deposition / lipid filling (Oil red-O staining)” value (primed 3T3-L1 cells, insulin replaced with NPY) was “markedly increased”.

`N=C(N)NCCC[C@H](NC(=O)CC1(CC(=O)N2CCN(C3c4ccccc4NC(=O)c4ccccc43)CC2)CCCC1)C(=O)NCCn1c(=O)n(-c2ccccc2)n(-c2ccccc2)c1=O` (stereo partly drawn) [BIIE0246] was tested, and the “block of NPY-induced leptin and resistin secretion and lipid filling” value (Y2R antagonist) was “blocked”.
